Activity calls are given as the source filed them. The rule behind the calls is not given here.
Tests used:
[1] = system: HEK293; assay: Displacement of [3H]menthol from human TRPM8 S4b_M5 mutant expressed in HEK293 cell membranes at 100 uM by scintillation counting
[2] = Binding affinity to human TRPM8 S4b_M mutant expressed in HEK293 cell membranes
[3] = system: Transient receptor potential cation channel subfamily M member 8 (Homo sapiens), Q7Z2W7 [L1009R]; conditions: HEK293, 100 uM
[4] = Activity at human TRPM8 S4b_M mutant expressed in HEK293 cells assessed as compound concentration causing leftward shift of voltage for half maximal activation; format: cell-based
[5] = system: Transient receptor potential cation channel subfamily M member 8 (Homo sapiens), Q7Z2W7 [Y745H]; conditions: HEK293, 100 uM
Sequence of Transient receptor potential cation channel subfamily M member 8 (Homo sapiens), Q7Z2W7 [Y745H] (Q7Z2W7 whole entry Y745H): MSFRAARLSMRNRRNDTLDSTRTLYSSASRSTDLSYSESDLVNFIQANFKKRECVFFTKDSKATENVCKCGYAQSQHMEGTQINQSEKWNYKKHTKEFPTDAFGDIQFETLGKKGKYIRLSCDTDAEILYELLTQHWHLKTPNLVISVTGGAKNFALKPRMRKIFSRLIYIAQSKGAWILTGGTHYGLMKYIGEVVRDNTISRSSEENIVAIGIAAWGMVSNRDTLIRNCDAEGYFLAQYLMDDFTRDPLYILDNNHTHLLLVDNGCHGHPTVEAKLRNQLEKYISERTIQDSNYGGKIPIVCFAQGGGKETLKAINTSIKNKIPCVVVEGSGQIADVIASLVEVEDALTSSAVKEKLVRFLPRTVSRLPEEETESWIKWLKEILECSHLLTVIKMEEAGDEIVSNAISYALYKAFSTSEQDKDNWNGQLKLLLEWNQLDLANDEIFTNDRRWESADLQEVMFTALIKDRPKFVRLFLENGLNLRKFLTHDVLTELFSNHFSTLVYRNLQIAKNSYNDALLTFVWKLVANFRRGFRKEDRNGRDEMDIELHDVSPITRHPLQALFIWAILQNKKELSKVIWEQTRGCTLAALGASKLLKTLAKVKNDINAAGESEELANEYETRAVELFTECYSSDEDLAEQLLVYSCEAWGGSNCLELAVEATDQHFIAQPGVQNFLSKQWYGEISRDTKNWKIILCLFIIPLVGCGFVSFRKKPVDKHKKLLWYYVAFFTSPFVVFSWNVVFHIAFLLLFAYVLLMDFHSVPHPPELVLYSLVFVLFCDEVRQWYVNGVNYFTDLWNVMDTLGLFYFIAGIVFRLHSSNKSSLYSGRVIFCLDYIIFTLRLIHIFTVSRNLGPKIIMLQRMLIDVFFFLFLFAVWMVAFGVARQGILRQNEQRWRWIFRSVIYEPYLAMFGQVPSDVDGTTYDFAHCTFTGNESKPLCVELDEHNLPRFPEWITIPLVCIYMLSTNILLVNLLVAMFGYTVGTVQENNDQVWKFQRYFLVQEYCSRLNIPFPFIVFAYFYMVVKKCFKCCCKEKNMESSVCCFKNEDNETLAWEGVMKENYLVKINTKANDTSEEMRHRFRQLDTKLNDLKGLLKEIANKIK

Sequence of Transient receptor potential cation channel subfamily M member 8 (Homo sapiens), Q7Z2W7 [L1009R] (Q7Z2W7 whole entry L1009R): as the sequence (Q7Z2W7 whole entry Y745H) above, with H745Y, L1009R counted along it

CC1CCC(C(C)C)C(O)C1 (stereo not given) [MENTHOL]
inhibition [1]: inactive | Kd [2]: 220 µM | inhibition [3]: Active | EC50 [4]: 477 µM | inhibition [5]: inactive
